Test results: patent publication US5591711A, “L-lysyl-glycyl-L-histidine and therapeutic agent for wound healing containing the same” (Hoechst Japan Limited, priority 1994, dated 1997)
Peptide text beside a SMILES is read from it.

System: Balb/3T3 cells
Test: Fibroblast proliferation promoting activity (3H-thymidine incorporation)
Format: cell-based
Conditions: Balb/3T3 fibroblasts; for Incorporated 3H-thymidine: 15 h incubation then 6 h 3H-thymidine, mean ± SD, 4 cases per group
Protocol: Fibroblast cell strains, Balb/3T3 cells (purchased from ATCC) were inoculated into a 96-well culture plate at-5×10^3 cells/well, 100 μl of 10% calf serum-containing Dulbecco Modified Eagle Medium (hereinafter referred to as DME) was added and incubated at. 37 uC for 24 hours in an incubator. Then, the culture medium was removed and the cells were washed. One hundred μl of lowered serum medium (0.2% calf serum-containing DME) Was added to the wells and incubation was continued for another 3 days. L-lysyl-glycyl-L-histidine obtained in Example 1 was added thereto at 10 μl/well and incubation was performed for 15 hours. The culture medium contains a trace amount of Cu2+, and a part of L-lysyl-glycyl-L-histidine may form copper complexes. The 3H-thymidine was added to be 74 KBq/ml and incubation was performed for 6 hours. After completion of the incubation, the medium was removed, the cells were collected and the amount of 3H-thymidine incorporated in the cells was determined.

## NCCCC[C@H](N)C(=O)NCC(=O)N[C@@H](Cc1c[nH]cn1)C(=O)O [L-lysyl-glycyl-L-histidine] (H-Lys-Gly-His-OH)
10^-6 to 10^-3 M, conclusion from Table 1
  cell proliferation promoting activity: dose-dependent cell proliferation promoting activity
Dose 10^-3 M
  Incorporated 3H-thymidine: 7719.5 ± 1246.8 cpm
Dose 10^-4 M
  Incorporated 3H-thymidine: 4889.8 ± 495.1 cpm
Dose 10^-5 M
  Incorporated 3H-thymidine: 1371.8 ± 249.1 cpm
Dose 10^-6 M
  Incorporated 3H-thymidine: 1406.5 ± 470.5 cpm
